Experimental data reported in ChEMBL document CHEMBL4420069, “Targeting capn9/capns2 activity as a therapeutic strategy for the treatment of myofibroblast differentiation and associated pathologies” (2018).
Activity calls are given as the source filed them. The calls are words filed in the database; no cut-off is given here. Where a SMILES comes first, the peptide text is derived from it. The star is where a group is joined. Cbz = O=C(OCc1ccccc1)*; CH2F = FC*

How the values were obtained:
[1] = biological target: Mothers against decapentaplegic homolog 2 (Mus musculus) (UniProt Q62432); conditions: at 25 to 50 µM
Description: Inhibition of TGFbeta1-induced SMAD2 phosphorylation in mouse NMuMG cells at 25 to 50 uM incubated for 24 to 72 hrs

[2] = biological target: Transient receptor potential cation channel subfamily M member 7 (Mus musculus) (UniProt Q923J1); conditions: at 25 to 50 µM
Description: Inhibition of TRPM7 in mouse NMuMG cells assessed as suppression of TGFbeta1-induced calpain activity by measuring Filamin-A levels at 25 to 50 uM incubated for 24 to 72 hrs by Western blot analysis

[3] = biological target: Transient receptor potential cation channel subfamily M member 7 (Mus musculus) (UniProt Q923J1); conditions: at 25 to 50 µM; remark: listed apart in the source
Description: Inhibition of TRPM7 in mouse NMuMG cells assessed as suppression of TGFbeta1-induced EMT by measuring alpha-SMA expression at 25 to 50 uM incubated for 24 to 72 hrs by Western blot analysis

[4] = biological target: Mothers against decapentaplegic homolog 2 (Mus musculus) (UniProt Q62432); experiment: Inhibition of TGFbeta1-induced SMAD2 phosphorylation in mouse NMuMG cells at 25 to 50 uM incubated for 72 hrs; format: cell-based
[5] = biological target: Transient receptor potential cation channel subfamily M member 7 (Homo sapiens) (UniProt Q96QT4); experiment: Inhibition of TRPM7 in NHLF assessed as inhibition of TGFB1-induced FMT by measuring alpha-SMA expression at 25 to 50 uM incubated for 24 hrs by Western blot analysis
Calpain-9 = biological target: T1, Calpain-9 (Homo sapiens, UniProt O14815); experiment: Inhibition of human recombinant mini-CAPN9 pre-incubated for 10 mins before calpain FRET peptide 5-FAM /QXL520 substrate addition by FLIPR assay
T1 sequence (O14815 whole entry): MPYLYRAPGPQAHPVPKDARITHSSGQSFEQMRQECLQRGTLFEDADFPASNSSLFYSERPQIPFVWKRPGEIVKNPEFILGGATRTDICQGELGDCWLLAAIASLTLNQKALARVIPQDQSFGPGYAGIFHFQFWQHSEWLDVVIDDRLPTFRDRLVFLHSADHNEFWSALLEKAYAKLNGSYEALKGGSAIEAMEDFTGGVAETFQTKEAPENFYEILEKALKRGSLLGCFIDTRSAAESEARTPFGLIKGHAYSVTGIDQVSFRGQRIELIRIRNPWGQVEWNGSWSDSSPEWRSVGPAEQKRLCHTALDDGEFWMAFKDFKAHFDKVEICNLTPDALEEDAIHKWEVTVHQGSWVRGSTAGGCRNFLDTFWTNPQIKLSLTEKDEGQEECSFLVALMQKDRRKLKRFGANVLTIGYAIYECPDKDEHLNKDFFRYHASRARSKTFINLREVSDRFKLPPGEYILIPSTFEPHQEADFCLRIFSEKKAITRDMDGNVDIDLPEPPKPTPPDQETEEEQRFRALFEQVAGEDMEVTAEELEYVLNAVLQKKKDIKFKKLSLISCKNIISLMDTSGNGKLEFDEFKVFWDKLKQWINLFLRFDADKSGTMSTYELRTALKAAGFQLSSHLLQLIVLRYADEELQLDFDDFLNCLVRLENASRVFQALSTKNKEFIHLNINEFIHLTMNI

Mus musculus [6] = organism: Mus musculus; experiment: Inhibition of TGFbeta receptor in mouse NMuMG cells assessed as suppression of TGFbeta1-induced calpain activity by measuring Filamin-A levels at 1 to 10 uM incubated for 24 to 72 hrs by Western blot analysis; format: cell-based
Mus musculus [7] = organism: Mus musculus; experiment: Inhibition of TGFbeta receptor in mouse NMuMG cells assessed as suppression of TGFbeta1-induced SMAD2 phosphorylation at 1 to 10 uM incubated for 24 to 72 hrs by Western blot analysis; format: cell-based
Mus musculus [8] = organism: Mus musculus; experiment: Inhibition of TGFbeta receptor in mouse NMuMG cells assessed as suppression of TGFbeta1-induced EMT by measuring alpha-SMA expression at 1 to 10 uM incubated for 24 to 72 hrs by Western blot analysis; format: cell-based
Mus musculus [9] = organism: Mus musculus; experiment: Inhibition of calcineurin in mouse NMuMG cells assessed as suppression of TGFbeta1-induced EMT by measuring alpha-SMA expression at 0.25 to 0.75 uM incubated for 72 hrs by Western blot analysis; format: cell-based
Mus musculus [10] = organism: Mus musculus; experiment: Inhibition of calpain in mouse NMuMG cells assessed as suppression of TGFbeta1-induced calpain activity by measuring Filamin-A levels at 25 to 50 uM incubated for 24 to 72 hrs by Western blot analysis; format: cell-based
Mus musculus [11] = organism: Mus musculus; experiment: Inhibition of calpain in mouse NMuMG cells assessed as suppression of TGFbeta1-induced EMT by measuring alpha-SMA expression at 25 to 50 uM incubated for 24 to 72 hrs by Western blot analysis; format: cell-based
MDCK = experiment: Inhibition of calpain in MDCK cells assessed as suppression of TGFbeta1-induced EMT by measuring alpha-SMA expression at 10 to 20 uM incubated for 24 to 72 hrs by Western blot analysis; format: cell-based; conditions: Canis lupus familiaris
Mus musculus [12] = organism: Mus musculus; experiment: Inhibition of calpain in mouse NMuMG cells assessed as suppression of TGFbeta1-induced E-cadherin expression at 10 to 20 uM by immunofluorescence microscopy; format: cell-based
Mus musculus [13] = organism: Mus musculus; experiment: Inhibition of calpain in mouse NMuMG cells assessed as suppression of TGFbeta1-induced EMT by measuring MMP9 expression at 10 to 20 uM incubated for 48 hrs; format: cell-based
[14] = biological target: Calpain1/2 (Homo sapiens) (UniProt P17655+P07384); conditions: 10 to 20 uM
Description: Inhibition of calpain in NHLF assessed as inhibition of TGFB1-induced FMT by measuring alpha-SMA expression at 10 to 20 uM incubated for 24 hrs by Western blot analysis

Mus musculus [15] = organism: Mus musculus; experiment: Inhibition of calpain in mouse NMuMG cells assessed as suppression of TGFbeta1-induced actin cytoskeleton reorganization at 10 to 20 uM; format: cell-based
Mus musculus [16] = organism: Mus musculus; experiment: Inhibition of calpain in mouse NMuMG cells assessed as suppression of TGFbeta1-induced EMT by measuring collagen 1A1 expression at 10 to 20 uM incubated for 48 hrs; format: cell-based
Mus musculus [17] = organism: Mus musculus; experiment: Inhibition of calpain in mouse NMuMG cells assessed as suppression of TGFbeta1-induced EMT by measuring alpha-SMA expression at 10 to 20 uM incubated for 48 to 72 hrs after 72 hrs pre-incubation with TGFbeta with continued presence of TGFbeta by Western blot analysis; format: cell-based
Mus musculus [18] = organism: Mus musculus; experiment: Inhibition of calpain in mouse NMuMG cells assessed as suppression of TGFbeta1-induced E-cadherin expression at 10 to 20 uM incubated for 48 to 72 hrs after 72 hrs pre-incubation with TGFbeta with continued presence of TGFbeta by immunofluorescence microscopy; format: cell-based
Mus musculus [19] = organism: Mus musculus; experiment: Inhibition of calpain in mouse NMuMG cells assessed as suppression of TGFbeta1-induced EMT by measuring MMP2 expression at 10 to 20 uM incubated for 48 hrs; format: cell-based
Mus musculus [20] = organism: Mus musculus; experiment: Inhibition of calpain in mouse NMuMG cells assessed as suppression of TGFbeta1-induced EMT by measuring vimentin expression at 10 to 20 uM incubated for 48 hrs; format: cell-based
Mus musculus [21] = organism: Mus musculus; experiment: Inhibition of calpain in mouse NMuMG cells assessed as suppression of TGFbeta1-induced actin cytoskeleton reorganization at 10 to 20 uM incubated for 48 to 72 hrs after 72 hrs pre-incubation with TGFbeta with continued presence of TGFbeta; format: cell-based
Mus musculus [22] = organism: Mus musculus; experiment: Inhibition of calpain in mouse NMuMG cells assessed as suppression of TGFbeta1-induced EMT by measuring alpha-SMA expression at 10 to 20 uM incubated for 24 to 72 hrs by Western blot analysis; format: cell-based
[23] = biological target: Mothers against decapentaplegic homolog 2 (Mus musculus) (UniProt Q62432); experiment: Inhibition of TGFbeta1-induced SMAD2 phosphorylation in mouse NMuMG cells at 10 to 20 uM incubated for 24 to 72 hrs; format: cell-based

Mothers against decapentaplegic homolog 2 (Mus musculus), sequence (Q62432 whole entry): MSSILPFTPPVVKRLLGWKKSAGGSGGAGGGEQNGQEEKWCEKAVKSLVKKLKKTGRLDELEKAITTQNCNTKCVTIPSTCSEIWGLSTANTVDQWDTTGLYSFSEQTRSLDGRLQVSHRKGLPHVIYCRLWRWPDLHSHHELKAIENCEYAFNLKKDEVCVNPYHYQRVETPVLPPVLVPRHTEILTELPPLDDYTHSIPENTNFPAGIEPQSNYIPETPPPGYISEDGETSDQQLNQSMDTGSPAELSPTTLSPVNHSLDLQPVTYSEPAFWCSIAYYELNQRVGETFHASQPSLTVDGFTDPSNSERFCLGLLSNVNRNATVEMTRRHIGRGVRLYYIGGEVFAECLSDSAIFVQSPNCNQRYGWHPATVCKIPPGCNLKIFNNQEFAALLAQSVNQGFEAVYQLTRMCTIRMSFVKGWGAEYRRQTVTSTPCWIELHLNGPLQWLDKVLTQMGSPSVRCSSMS
Transient receptor potential cation channel subfamily M member 7 (Mus musculus), sequence (Q923J1 whole entry): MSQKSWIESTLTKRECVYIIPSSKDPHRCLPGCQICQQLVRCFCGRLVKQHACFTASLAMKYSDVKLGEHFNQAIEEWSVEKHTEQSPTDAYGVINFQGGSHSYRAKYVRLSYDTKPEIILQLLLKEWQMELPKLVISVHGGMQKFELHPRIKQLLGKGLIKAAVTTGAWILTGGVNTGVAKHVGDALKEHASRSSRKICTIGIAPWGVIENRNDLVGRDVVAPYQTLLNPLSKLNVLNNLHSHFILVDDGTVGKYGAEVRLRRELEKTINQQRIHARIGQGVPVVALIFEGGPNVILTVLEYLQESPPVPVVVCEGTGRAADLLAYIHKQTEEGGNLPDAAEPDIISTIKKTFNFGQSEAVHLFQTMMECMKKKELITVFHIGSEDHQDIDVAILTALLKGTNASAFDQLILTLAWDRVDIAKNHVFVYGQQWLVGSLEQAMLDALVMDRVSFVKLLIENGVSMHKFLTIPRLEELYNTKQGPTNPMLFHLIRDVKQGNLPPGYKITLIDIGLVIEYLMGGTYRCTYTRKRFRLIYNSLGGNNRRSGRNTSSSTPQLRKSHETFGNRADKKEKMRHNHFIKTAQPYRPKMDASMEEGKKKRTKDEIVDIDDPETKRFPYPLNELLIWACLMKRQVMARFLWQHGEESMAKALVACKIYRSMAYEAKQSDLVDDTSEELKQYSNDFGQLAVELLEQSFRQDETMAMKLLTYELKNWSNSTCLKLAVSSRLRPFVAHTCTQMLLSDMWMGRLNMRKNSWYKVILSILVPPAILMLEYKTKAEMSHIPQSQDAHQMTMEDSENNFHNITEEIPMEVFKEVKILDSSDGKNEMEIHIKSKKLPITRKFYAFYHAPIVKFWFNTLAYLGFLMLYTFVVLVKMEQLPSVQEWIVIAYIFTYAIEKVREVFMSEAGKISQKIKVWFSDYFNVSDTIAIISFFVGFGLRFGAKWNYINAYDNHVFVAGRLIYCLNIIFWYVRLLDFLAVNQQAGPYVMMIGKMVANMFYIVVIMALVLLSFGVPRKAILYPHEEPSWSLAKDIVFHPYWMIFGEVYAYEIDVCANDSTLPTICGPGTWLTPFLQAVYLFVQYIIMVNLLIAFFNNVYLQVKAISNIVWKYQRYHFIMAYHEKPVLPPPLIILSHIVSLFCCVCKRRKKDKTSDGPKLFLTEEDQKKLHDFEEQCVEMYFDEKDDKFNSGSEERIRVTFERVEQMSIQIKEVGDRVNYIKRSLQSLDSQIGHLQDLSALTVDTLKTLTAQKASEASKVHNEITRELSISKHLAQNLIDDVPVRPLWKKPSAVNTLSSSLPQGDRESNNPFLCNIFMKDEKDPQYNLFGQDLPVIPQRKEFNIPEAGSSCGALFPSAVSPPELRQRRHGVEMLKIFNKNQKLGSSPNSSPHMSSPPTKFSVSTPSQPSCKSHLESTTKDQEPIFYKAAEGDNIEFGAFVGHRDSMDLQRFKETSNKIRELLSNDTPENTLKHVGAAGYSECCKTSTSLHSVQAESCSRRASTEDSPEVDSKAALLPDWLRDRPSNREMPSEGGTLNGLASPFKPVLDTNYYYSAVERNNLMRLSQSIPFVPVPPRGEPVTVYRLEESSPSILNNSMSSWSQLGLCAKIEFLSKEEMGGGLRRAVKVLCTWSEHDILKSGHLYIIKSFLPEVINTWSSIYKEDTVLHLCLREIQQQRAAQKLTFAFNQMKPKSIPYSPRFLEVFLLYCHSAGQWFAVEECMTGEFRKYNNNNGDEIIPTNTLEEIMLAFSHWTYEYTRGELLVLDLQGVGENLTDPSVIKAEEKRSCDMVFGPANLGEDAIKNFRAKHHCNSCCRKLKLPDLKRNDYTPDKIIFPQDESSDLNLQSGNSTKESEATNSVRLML
Calpain1/2 (Homo sapiens), sequence (P07384 whole entry, looked up): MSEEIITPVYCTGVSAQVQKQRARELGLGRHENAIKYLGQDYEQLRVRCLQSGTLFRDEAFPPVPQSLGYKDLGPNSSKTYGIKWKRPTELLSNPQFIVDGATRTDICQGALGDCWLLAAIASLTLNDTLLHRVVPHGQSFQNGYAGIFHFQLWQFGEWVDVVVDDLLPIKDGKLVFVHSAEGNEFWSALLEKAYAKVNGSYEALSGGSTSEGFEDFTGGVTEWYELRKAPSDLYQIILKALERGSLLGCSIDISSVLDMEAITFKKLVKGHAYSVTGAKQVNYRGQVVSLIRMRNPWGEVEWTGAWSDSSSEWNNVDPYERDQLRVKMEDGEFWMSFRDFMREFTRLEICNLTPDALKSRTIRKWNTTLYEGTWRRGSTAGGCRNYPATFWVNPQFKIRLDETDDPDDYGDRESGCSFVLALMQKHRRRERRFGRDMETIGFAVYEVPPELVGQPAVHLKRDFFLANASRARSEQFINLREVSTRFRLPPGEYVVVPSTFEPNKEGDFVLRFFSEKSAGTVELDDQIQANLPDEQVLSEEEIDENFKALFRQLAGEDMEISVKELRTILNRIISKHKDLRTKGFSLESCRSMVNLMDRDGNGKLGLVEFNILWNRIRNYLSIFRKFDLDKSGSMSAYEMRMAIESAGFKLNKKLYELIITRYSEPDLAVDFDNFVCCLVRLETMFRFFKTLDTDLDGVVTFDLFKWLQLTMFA
Calpain1/2 (Homo sapiens), sequence (P17655 whole entry, looked up): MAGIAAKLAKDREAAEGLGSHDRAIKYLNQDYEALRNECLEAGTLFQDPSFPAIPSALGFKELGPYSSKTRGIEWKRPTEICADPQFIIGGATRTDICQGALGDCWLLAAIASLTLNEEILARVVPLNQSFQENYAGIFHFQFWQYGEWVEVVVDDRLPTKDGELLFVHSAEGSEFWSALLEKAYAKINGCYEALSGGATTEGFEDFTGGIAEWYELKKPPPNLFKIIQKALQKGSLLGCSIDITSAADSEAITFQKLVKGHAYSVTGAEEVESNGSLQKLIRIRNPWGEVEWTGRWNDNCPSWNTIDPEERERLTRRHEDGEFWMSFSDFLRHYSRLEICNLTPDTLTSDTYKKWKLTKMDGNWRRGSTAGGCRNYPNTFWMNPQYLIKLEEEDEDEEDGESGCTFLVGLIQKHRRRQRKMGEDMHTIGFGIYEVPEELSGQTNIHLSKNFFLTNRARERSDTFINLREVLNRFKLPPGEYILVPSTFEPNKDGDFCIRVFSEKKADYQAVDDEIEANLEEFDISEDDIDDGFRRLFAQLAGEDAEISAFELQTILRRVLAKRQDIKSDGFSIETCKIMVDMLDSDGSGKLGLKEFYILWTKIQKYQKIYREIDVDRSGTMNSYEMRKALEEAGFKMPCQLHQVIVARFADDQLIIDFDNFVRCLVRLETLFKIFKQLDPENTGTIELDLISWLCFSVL

NCCOB(c1ccccc1)c1ccccc1
inhibition [1]: inactive
inhibition [2]: Active
inhibition [3]: Active

c1ccc2c(c1)CCC[C@H]2Nc1nc2ccccc2[nH]1
inhibition [4]: inactive
inhibition [2]: Active
inhibition [3]: Active
inhibition [5]: Active

C[C@H](NC(=O)[C@H](Cc1ccccc1)NC(=O)OCc1ccccc1)C(=O)CF
IC50 (Calpain-9): 100 µM

NC(=O)c1ccc(-c2nc(-c3ccccn3)c(-c3ccc4c(c3)OCO4)[nH]2)cc1
inhibition (Mus musculus [6]): Active
inhibition (Mus musculus [7]): Active
inhibition (Mus musculus [8]): Active

COC(=O)C[C@H](NC(=O)[C@H](C)NC(=O)[C@@H](NC(=O)OCc1ccccc1)C(C)C)C(=O)CF (Cbz-Val-Ala-Asp(OMe)-CH2F)
IC50 (Calpain-9): 100 µM

C=CC[C@@H]1/C=C(\C)C[C@H](C)C[C@H](OC)[C@H]2O[C@@](O)(C(=O)C(=O)N3CCCC[C@H]3C(=O)O[C@H](/C(C)=C/[C@@H]3CC[C@@H](O)[C@H](OC)C3)[C@H](C)[C@@H](O)CC1=O)[C@H](C)C[C@@H]2OC
inhibition (Mus musculus [9]): Active

CCCC[C@@H](C=O)NC(=O)[C@H](CC(C)C)NC(=O)OCc1ccccc1
inhibition [1]: inactive
inhibition (Mus musculus [10]): Active
inhibition (Mus musculus [11]): Active

CC(C)[C@H](NC(=O)OCc1ccccc1)C(=O)N[C@H](C=O)Cc1ccccc1 (Cbz-Val-Phe-aldehyde)
inhibition (MDCK): Active
inhibition (Mus musculus [12]): Active
inhibition (Mus musculus [13]): Active
inhibition [14]: Active
inhibition (Mus musculus [15]): Active
inhibition (Mus musculus [16]): Active
inhibition (Mus musculus [17]): Active
inhibition (Mus musculus [18]): Active
inhibition (Mus musculus [19]): Active
inhibition (Mus musculus [20]): Active
inhibition (Mus musculus [21]): Active
inhibition (Mus musculus [22]): Active
inhibition [23]: inactive
